Assay results as given in US20040166079A1, “N-Lauroyl amino acid composition for slimming the human body” (priority 2003, published 2004).

What was measured:
[1] = molecular target: T1, hyaluronidase (SIGMA), purified from bovine testicles (Bos taurus, UniProt Q2YDK3); experiment: Measurement of the activity of hyaluronidase (purified enzyme); format: biochemical; details: hyaluronidase test, 60 minutes at 37° C.
T1 construct: purified from bovine testicles; purchased SIGMA; host or cells: bovine testicles
T1 sequence (Q2YDK3 36-553): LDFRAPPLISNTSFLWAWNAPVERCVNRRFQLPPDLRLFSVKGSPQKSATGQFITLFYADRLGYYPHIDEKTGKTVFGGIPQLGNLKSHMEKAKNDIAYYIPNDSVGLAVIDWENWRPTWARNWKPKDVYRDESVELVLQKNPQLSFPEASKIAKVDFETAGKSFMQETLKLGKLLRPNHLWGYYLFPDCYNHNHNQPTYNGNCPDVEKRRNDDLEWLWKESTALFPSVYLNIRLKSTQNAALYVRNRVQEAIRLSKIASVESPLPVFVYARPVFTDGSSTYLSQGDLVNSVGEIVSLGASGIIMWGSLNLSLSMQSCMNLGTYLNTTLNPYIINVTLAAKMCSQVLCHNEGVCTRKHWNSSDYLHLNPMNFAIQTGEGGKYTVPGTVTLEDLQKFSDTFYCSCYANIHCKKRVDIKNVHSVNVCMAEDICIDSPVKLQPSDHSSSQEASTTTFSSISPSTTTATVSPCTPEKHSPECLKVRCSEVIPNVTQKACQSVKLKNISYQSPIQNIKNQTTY
Method: The objective of this test is to measure the activity of hyaluronidase. This enzyme, which is naturally found in the skin, degrades hyaluronic acid. The study is carried out in vitro on the purified enzyme.
The hyaluronidase (SIGMA), purified from bovine testicles, is incubated at 0.01 U/ml in the presence of hyaluronic acid at 0.02 mg/ml, with or without test product. The incubation is carried out for 60 minutes at 37° C.
Evaluation of the effects: After the incubation, the hyaluronic acid not degraded by the enzyme is precipitated by a 24 mM sodium acetate/79. mM acetic acid mixture (10 minutes, room temperature). The precipitate is measured by spectrophotometry at 590 nm.
The effect of the test products is compared to that observed in the presence of dipotassium glycyrrhizinate, a reference hyaluronidase inhibitor.

[2] = test system: lipoprotein lipase (LPL); experiment: Measurement of the activity of lipoprotein lipase (PNPB hydrolysis, 400 nm); format: biochemical, pseudomonas species; details: relative to the control
Method: Lipoprotein lipase (LPL) is an enzyme found in the extracellular compartment of adipocytes. It brings about the hydrolysis of the triglycerides contained in the chylomicrons to fatty acids and glycerol. The latter can thus penetrate into the adipocytes to be stored therein. […] It is based on an enzymatic test using a purified enzyme. A lipoprotein lipase (SIGMA, pseudomonas species) is incubated in the presence of a substrate, p-nitrophenyl butyrate (PNPB), which absorbs light at 400 nm after hydrolysis. [drawing 6] The enzyme, at 20 U/ml, is incubated in the presence of the test product and PNPB, at 0.9 mM. The kinetics of appearance of p-nitrophenol is performed at 37° C. for 10 minutes. It is monitored by measuring the absorbance at 400 nm. The results are presented in the following table, as a percentage inhibition of the lipoprotein lipase activity relative to the control.

[3] = test system: human adipocytes; experiment: Assay of the free fatty acids (lipolytic activity) in isolated human adipocytes in suspension; format: cell-based; details: incubation concentration 0.0019 wt % DE
Description: Hydrolysis of the triglycerides to nonesterified fatty acids and glycerol is called lipolysis. Triglycerides are stored in the adipocytes and constitute the fat reserve. For this reserve to diminish, which is the desired aim when slimming products are used, the triglycerides should be hydrolysed in the form of fatty acids, which in their case can be removed from the cell. Hydrolysis of the triglycerides calls into play a hormone-dependent lipase which must be phosphorylated in order to be active. The phosphorylation step uses a kinase and cAMP. An increase in the cAMP content of the adipocytes is necessary for promoting the activity of the lipase and therefore the lipolysis. The method described consists in incubating the products in the presence of human adipocytes in suspension, followed by […].
The test is carried out using human adipocytes isolated and prepared as a cellular suspension. The adipocytes are isolated from the subcutaneous abdominal adipose tissue recovered during plastic surgery operations (abdominal plastic surgery operations) performed on women. The cells are isolated from fresh tissue. The adipose tissue is isolated and dissociated by the action of a collagenase (SIGMA™, 1 mg/ml, 30 minutes at 37° C., gentle stirring). Collagenase digests the connective tissue present in the adipose tissue. After digestion, the cells are filtered and washed in an appropriate culture medium containing MEM medium free of phenol red, free of glutamine (SIGMA)+2.2 mg/ml of sodium bicarbonate (GIBCO)+50 IU of penicillin (BIOWHITTAKER™)+50 μg/ml of streptomycin (BIOWHITTAKER™)+1% (v/v) of L-glutamine (BIOWHITTAKER™)+0.5% of lipid-free serum albumin (SIGMA™). The adipocyte suspension is used immediately after its preparation.
The test products are diluted in the adipocyte culture medium. They are incubated with the cells in suspension for two hours at 37° C. (250 μl of product+250 μl of adipocyte suspension).
After the incubation, the cell lysis is checked visually by the presence of a lipid layer at the surface of the cellular suspension. The supernatant media are collected. The free fatty acids are assayed by spectrophotometry using a commercial kit (NEFA™ C kit, WAKO), with reference to a fatty acid calibration series. The lypolytic activity of the products is evaluated relative to a control group incubated in the presence of adipocytes and in the absence of product. […] Five assays are performed for each of the test products which are as follows:
This assay is repeated by carrying out new assays at different concentrations.

[4] = incubation concentration 0.01 % DE

Cn1c(=O)c2c(ncn2C)n(C)c1=O [Caffeine, 1,3,7-trimethyl-xanthine]
Percentage inhibition of hyaluronidase activity ([1]; incubation concentration 0.001 % DE): 15%
Percentage inhibition of hyaluronidase activity [1, 4]: 20%
Percentage inhibition of LPL [2, 4]: 0%
Percentage inhibition of LPL ([2]; incubation concentration 0.1 % DE): 0%
Free fatty acid concentration ([3]; 2 h at 37° C., mean of five assays): 15.10 ± 4.11 µM
Lipolytic activity (compared with the control = 100) ([3]; control = 100): 131
